Common to all, as to type: functional, organism-based
Assay [1] deals with Plasmodium falciparum. The assay is described as follows: Antimalarial activity against Plasmodium falciparum HB3.
The subject of assay [2] is Plasmodium falciparum. The assay is described as follows: Antimalarial activity against Plasmodium falciparum Dd2.
In assay [3] the test system is Plasmodium falciparum. The assay is described as follows: Antimalarial activity against Plasmodium falciparum W2.

For `CCN(CC)CCCC(C)Nc1ccnc2cc(Cl)ccc12` (stereo not drawn) [CHLOROQUINE], the values for the 90% effect concentration (IC90) in the assay with Plasmodium falciparum [1], in the assay on Plasmodium falciparum [2] and with Plasmodium falciparum [3] were 0.0457 µM, 0.167 µM and 0.802 µM, respectively.

The values above are taken from ChEMBL document CHEMBL1138951 (J Med Chem, 2006).
